Assay results reported in patent publication US20120264735A1 (priority 2009, published 2012).

Target: T1, c-Met kinase (recombinant c-Met) (Homo sapiens, UniProt P08581)
T1 construct: 0.27 nM recombinant c-Met
Assay: In vitro kinase assay I (homogeneous time-resolved fluorescence tyrosine kinase assay)
Assay type: biochemical
Method in brief: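 Biotinylated peptide (0.5 μM) phosphorylated by 0.2 nM recombinant c-Met with 50 μM MgATP, 60 min at room temperature, pH 7.4, 5% DMSO. EDTA stop; HTRF read with Eu-anti-phosphotyrosine antibody and streptavidin-APC. IC50 from 4-parameter logistic fit.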

T1 sequence (P08581 25-1390): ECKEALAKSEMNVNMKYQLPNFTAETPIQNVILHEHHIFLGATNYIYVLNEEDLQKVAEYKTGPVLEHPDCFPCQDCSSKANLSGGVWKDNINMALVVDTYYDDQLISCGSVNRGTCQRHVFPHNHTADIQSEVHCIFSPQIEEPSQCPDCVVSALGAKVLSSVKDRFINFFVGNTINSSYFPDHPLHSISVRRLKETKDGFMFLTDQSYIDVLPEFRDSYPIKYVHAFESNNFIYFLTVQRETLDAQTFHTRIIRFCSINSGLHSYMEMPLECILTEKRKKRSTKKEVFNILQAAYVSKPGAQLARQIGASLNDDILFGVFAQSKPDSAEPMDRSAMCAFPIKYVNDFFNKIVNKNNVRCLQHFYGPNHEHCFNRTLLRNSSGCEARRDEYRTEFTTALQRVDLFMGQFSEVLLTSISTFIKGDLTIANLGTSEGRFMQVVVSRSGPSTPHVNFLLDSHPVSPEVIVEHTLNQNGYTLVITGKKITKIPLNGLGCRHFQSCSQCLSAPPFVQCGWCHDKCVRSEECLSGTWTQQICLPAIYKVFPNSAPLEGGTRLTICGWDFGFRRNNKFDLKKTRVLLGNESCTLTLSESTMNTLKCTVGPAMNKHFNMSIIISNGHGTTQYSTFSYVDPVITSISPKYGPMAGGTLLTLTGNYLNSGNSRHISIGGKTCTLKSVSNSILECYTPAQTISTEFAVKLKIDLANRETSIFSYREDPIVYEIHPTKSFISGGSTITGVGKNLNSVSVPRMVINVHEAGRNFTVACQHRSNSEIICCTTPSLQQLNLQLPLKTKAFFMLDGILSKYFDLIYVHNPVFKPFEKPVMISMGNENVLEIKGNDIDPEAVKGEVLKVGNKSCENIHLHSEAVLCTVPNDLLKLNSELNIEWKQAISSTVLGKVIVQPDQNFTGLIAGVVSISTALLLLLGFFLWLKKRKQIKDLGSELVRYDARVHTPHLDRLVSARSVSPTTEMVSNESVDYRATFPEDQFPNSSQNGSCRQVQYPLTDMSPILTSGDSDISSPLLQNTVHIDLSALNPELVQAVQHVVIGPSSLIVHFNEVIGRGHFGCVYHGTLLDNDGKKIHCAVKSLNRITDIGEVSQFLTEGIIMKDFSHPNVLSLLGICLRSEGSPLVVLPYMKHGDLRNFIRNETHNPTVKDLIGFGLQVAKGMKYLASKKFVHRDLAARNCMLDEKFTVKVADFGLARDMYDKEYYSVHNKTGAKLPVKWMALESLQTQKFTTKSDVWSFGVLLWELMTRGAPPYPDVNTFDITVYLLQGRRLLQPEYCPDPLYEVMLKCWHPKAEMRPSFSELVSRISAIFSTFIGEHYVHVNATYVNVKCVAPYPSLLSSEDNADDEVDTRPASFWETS

| SMILES | IC50 |
| --- | --- |
| COCCOc1cnc(-c2cccc(Cc3nn(-c4cnn(C)c4)ccc3=O)c2)nc1 [Example 4, 3-{3-[5-(2-Methoxyethoxy)pyrimidin-2-yl]benzyl}-1-(1-methyl-1H-pyrazol-4-yl)pyridazin-4(1H)-one] | < 100 nM |
| COc1cnc(-c2cccc(Cc3nn(-c4cnn(C)c4)ccc3=O)c2)nc1 [Example 5, 3-[3-(5-Methoxypyrimidin-2-yl)benzyl]-1-(1-methyl-1H-pyrazol-4-yl)pyridazin-4(1H)-one] | < 100 nM |
| CC(C)(O)COc1cnc(-c2cccc(Cc3nn(-c4cc(F)cc(C#N)c4)ccc3=O)c2)nc1 [Example 6, 3-Fluoro-5-[3-{3-[5-(2-hydroxy-2-methylpropoxy)pyrimidin-2-yl]benzyl}-4-oxopyridazin-1(4H)-yl]benzonitrile] | < 100 nM |
| COc1cnc(-c2cccc(Cc3nn(-c4cc(F)c(F)c(F)c4)ccc3=O)c2)nc1 [Example 9, 3-[3-(5-methoxypyrimidin-2-yl)benzyl]-1-(3,4,5-trifluorophenyl)pyridazin-4(1H)-one] | < 100 nM |
| O=c1ccn(-c2cc(F)c(F)c(F)c2)nc1Cc1ccc2ncnn2c1 [Example 10, 3-([1,2,4]triazolo[1,5-a]pyridin-6-ylmethyl)-1-(3,4,5-trifluorophenyl)pyridazin-4(1H)-one] | 1000 to 3000 nM |
| COC(=O)c1cnc(-c2cccc(Cc3nn(-c4cnn(C)c4)ccc3=O)c2)nc1 [Example 15, methyl 2-(3-{[1-(1-methyl-1H-pyrazol-4-yl)-4-oxo-1,4-dihydropyridazin-3-yl]methyl}phenyl)pyrimidine-5-carboxylate] | < 100 nM |
| Cc1cnc(-c2cccc(Cc3nn(-c4cnn(C)c4)ccc3=O)c2)s1 [Example 19, 1-(1-methyl-1H-pyrazol-4-yl)-3-[3-(5-methyl-1,3-thiazol-2-yl)benzyl]pyridazin-4(1H)-one] | < 100 nM |
| Cn1cc(-n2ccc(=O)c(Cc3cccc(-c4nccs4)c3)n2)cn1 [Example 20, 1-(1-methyl-1H-pyrazol-4-yl)-3-[3-(1,3-thiazol-2-yl)benzyl]pyridazin-4(1H)-one] | 100 to 1000 nM |
| Cn1cc(-n2ccc(=O)c(Cc3cccc(-n4cccn4)c3)n2)cn1 [Example 21, 1-(1-methyl-1H-pyrazol-4-yl)-3-[3-(1H-pyrazol-1-yl)benzyl]pyridazin-4(1H)-one] | 1000 to 3000 nM |
| Cn1cc(-n2ccc(=O)c(Cc3ccc4[nH]c(=O)[nH]c4c3)n2)cn1 [Example 23, 5-{[1-(1-methyl-1H-pyrazol-4-yl)-4-oxo-1,4-dihydropyridazin-3-yl]methyl}-1,3-dihydro-2H-benzimidazol-2-one] | 100 to 1000 nM |
| Cn1cc(-n2ccc(=O)c(Cc3ccc4oc(=O)[nH]c4c3)n2)cn1 [Example 24, 5-{[1-(1-methyl-1H-pyrazol-4-yl)-4-oxo-1,4-dihydropyridazin-3-yl]methyl}-1,3-benzoxazol-2(3H)-one] | 1000 to 3000 nM |
| O=c1ccn(-c2cccnc2)nc1Cc1cccc(-c2ncccn2)c1 [Example 29, 1-pyridin-3-yl-3-(3-pyrimidin-2-ylbenzyl)pyridazin-4(1H)-one] | 100 to 1000 nM |
| COc1cnc(-c2cccc(Cc3nn(-c4ccc(OC)nc4)ccc3=O)c2)nc1 [Example 33, 1-(6-methoxypyridin-3-yl)-3-[3-(5-methoxypyrimidin-2-yl)benzyl]pyridazin-4(1H)-one] | < 100 nM |
| COc1cnc(-c2cccc(Cc3nn(-c4cncc(F)c4)ccc3=O)c2)nc1 [Example 36, 1-(5-fluoropyridin-3-yl)-3-[3-(5-methoxypyrimidin-2-yl)benzyl]pyridazin-4(1H)-one] | < 100 nM |
| COc1cnc(-c2cccc(Cc3nn(-c4cncc(C)c4)ccc3=O)c2)nc1 [Example 37, 3-[3-(5-methoxypyrimidin-2-yl)benzyl]-1-(5-methylpyridin-3-yl)pyridazin-4(1H)-one] | < 100 nM |
| Cn1cc(-n2ccc(=O)c(Cc3cccc(-c4cnccn4)c3)n2)cn1 [Example 38, 1-(1-methyl-1H-pyrazol-4-yl)-3-[3-(pyrazin-2-yl)benzyl]pyridazin-4(1H)-one] | 1000 to 3000 nM |
| Cn1cc(-n2ccc(=O)c(Cc3cccc(-c4ccn(C)n4)c3)n2)cn1 [Example 39, 1-(1-methyl-1H-pyrazol-4-yl)-3-[3-(1-methyl-1H-pyrazol-3-yl)benzyl]pyridazin-4(1H)-one] | 100 to 1000 nM |
| Cc1nccc(-c2cccc(Cc3nn(-c4cnn(C)c4)ccc3=O)c2)n1 [Example 40, 1-(1-methyl-1H-pyrazol-4-yl)-3-[3-(2-methylpyrimidin-4-yl)benzyl]pyridazin-4(1H)-one] | 1000 to 3000 nM |
| Cc1noc(-c2cccc(Cc3nn(-c4cnn(C)c4)ccc3=O)c2)n1 [Example 41, 3-[3-(3-methyl-1,2,4-oxadiazol-5-yl)benzyl]-1-(1-methyl-1H-pyrazol-4-yl)pyridazin-4(1H)-one] | 1000 to 3000 nM |
| Cc1nc(-c2cccc(Cc3nn(-c4cnn(C)c4)ccc3=O)c2)no1 [Example 42, 3-[3-(5-methyl-1,2,4-oxadiazol-3-yl)benzyl]-1-(1-methyl-1H-pyrazol-4-yl)pyridazin-4(1H)-one] | 100 to 1000 nM |

The remaining lines, values ahead:

| IC50 | SMILES |
| --- | --- |
| < 100 nM | CC(C)COC(=O)Nc1cccc(Cc2nn(-c3cc(F)c(F)c(F)c3)ccc2=O)c1 [Example 7, 2-methylpropyl (3-{[4-oxo-1-(3,4,5-trifluorophenyl)-1,4-dihydropyridazin-3-yl]methyl}phenyl)carbamate] |
| < 100 nM | CCCOC(=O)Nc1cccc(Cc2nn(-c3cc(F)c(F)c(F)c3)ccc2=O)c1 [Example 8, propyl (3-{[4-oxo-1-(3,4,5-trifluorophenyl)-1,4-dihydropyridazin-3-yl]methyl}phenyl)carbamate] |
| < 100 nM | CCOC(=O)Nc1cccc(Cc2nn(-c3cc(F)cc(F)c3)ccc2=O)c1 [Example 11, ethyl (3-{[1-(3,5-difluorophenyl)-4-oxo-1,4-dihydropyridazin-3-yl]methyl}phenyl)carbamate] |
| < 100 nM | CCCOC(=O)Nc1cccc(Cc2nn(-c3cccc(Br)c3)ccc2=O)c1 [Example 12, propyl (3-{[1-(3-bromophenyl)-4-oxo-1,4-dihydropyridazin-3-yl]methyl}phenyl)carbamate] |
| < 100 nM | CCOC(=O)Nc1cccc(Cc2nn(-c3cccc(Br)c3)ccc2=O)c1 [Example 13, ethyl (3-{[1-(3-bromophenyl)-4-oxo-1,4-dihydropyridazin-3-yl]methyl}phenyl)carbamate] |
| < 100 nM | CCCOC(=O)Nc1cccc(Cc2nn(-c3ccc(Br)cc3)ccc2=O)c1 [Example 14, propyl (3-{[1-(4-bromophenyl)-4-oxo-1,4-dihydropyridazin-3-yl]methyl}phenyl)carbamate] |
| < 100 nM | CCCOC(=O)Nc1cccc(Cc2nn(-c3cc(F)c(Br)c(F)c3)ccc2=O)c1 [Example 16, propyl (3-{[1-(4-bromo-3,5-difluorophenyl)-4-oxo-1,4-dihydropyridazin-3-yl]methyl}phenyl)carbamate] |
| < 100 nM | CC(C)COC(=O)Nc1cccc(Cc2nn(-c3cc(F)cc(F)c3)ccc2=O)c1 [Example 17, 2-methylpropyl (3-{[1-(3,5-difluorophenyl)-4-oxo-1,4-dihydropyridazin-3-yl]methyl}phenyl)carbamate] |
| < 100 nM | CCOC(=O)Nc1cccc(Cc2nn(-c3ccc(Br)cc3)ccc2=O)c1 [Example 18, ethyl (3-{[1-(4-bromophenyl)-4-oxo-1,4-dihydropyridazin-3-yl]methyl}phenyl)carbamate] |
| < 100 nM | O=C(Nc1cccc(Cc2nn(-c3ccc(F)c(F)c3)ccc2=O)c1)OCCN1CCOCC1 [Example 22, 2-morpholin-4-ylethyl (3-{[1-(3,4-difluorophenyl)-4-oxo-1,4-dihydropyridazin-3-yl]methyl}phenyl)carbamate] |
| 100 to 1000 nM | CCOC(=O)Nc1cccc(Cc2nn(-c3ccn(C)n3)ccc2=O)c1 [Example 25, ethyl (3-{[1-(1-methyl-1H-pyrazol-3-yl)-4-oxo-1,4-dihydropyridazin-3-yl]methyl}phenyl)carbamate] |
| < 100 nM | CC(C)COC(=O)Nc1cccc(Cc2nn(-c3ccn(C)n3)ccc2=O)c1 [Example 26, 2-methylpropyl (3-{[1-(1-methyl-1H-pyrazol-3-yl)-4-oxo-1,4-dihydropyridazin-3-yl]methyl}phenyl)carbamate] |
| 100 to 1000 nM | CCCOC(=O)Nc1cccc(Cc2nn(-c3ccn(C)n3)ccc2=O)c1 [Example 27, propyl (3-{[1-(1-methyl-1H-pyrazol-3-yl)-4-oxo-1,4-dihydropyridazin-3-yl]methyl}phenyl)carbamate] |
| < 100 nM | CCCOC(=O)Nc1cccc(Cc2nn(-c3cccnc3)ccc2=O)c1 [Example 28, propyl {3-[(4-oxo-1-pyridin-3-yl-1,4-dihydropyridazin-3-yl)methyl]phenyl}carbamate] |
| < 100 nM | CCCOC(=O)Nc1cccc(Cc2nn(-c3ccncc3)ccc2=O)c1 [Example 30, propyl {3-[(4-oxo-1-pyridin-4-yl-1,4-dihydropyridazin-3-yl)methyl]phenyl}carbamate] |
| < 100 nM | CCOC(=O)Nc1cccc(Cc2nn(-c3ccc(OC)nc3)ccc2=O)c1 [Example 31, ethyl (3-{[1-(6-methoxypyridin-3-yl)-4-oxo-1,4-dihydropyridazin-3-yl]methyl}phenyl)carbamate] |
| < 100 nM | CCCOC(=O)Nc1cccc(Cc2nn(-c3ccc(OC)nc3)ccc2=O)c1 [Example 32, propyl (3-{[1-(6-methoxypyridin-3-yl)-4-oxo-1,4-dihydropyridazin-3-yl]methyl}phenyl)carbamate] |
| < 100 nM | CCOC(=O)Nc1cccc(Cc2nn(-c3cncc(F)c3)ccc2=O)c1 [Example 34, ethyl (3-{[1-(5-fluoropyridin-3-yl)-4-oxo-1,4-dihydropyridazin-3-yl]methyl}phenyl)carbamate] |
| < 100 nM | CCCOC(=O)Nc1cccc(Cc2nn(-c3cncc(F)c3)ccc2=O)c1 [Example 35, propyl (3-{[1-(5-fluoropyridin-3-yl)-4-oxo-1,4-dihydropyridazin-3-yl]methyl}phenyl)carbamate] |
| 100 to 1000 nM | O=c1ccn(-c2ccc(Cl)cc2)nc1Cc1ccc2ncccc2c1 [Example 43, 1-(4-chlorophenyl)-3-(quinolin-6-ylmethyl)pyridazin-4(1H)-one] |
